Target: MNK2 (Homo sapiens (Human), UniProt Q9HBH9)
Experiment: MNK Biochemical Enzymatic Assay (ADP-Glo), MNK2 binding assay
In short: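 Human MNK1 or MNK2 was preincubated with a 10-point, 1:3 serial dilution of compound for 15 min at 25 °C. Substrate was then added and the reaction ran 60 min at 25 °C. ADP formed was read by ADP-Glo luminescence, and IC50 came from non-linear regression.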

Chain of MNK2 (Q9HBH9 whole entry): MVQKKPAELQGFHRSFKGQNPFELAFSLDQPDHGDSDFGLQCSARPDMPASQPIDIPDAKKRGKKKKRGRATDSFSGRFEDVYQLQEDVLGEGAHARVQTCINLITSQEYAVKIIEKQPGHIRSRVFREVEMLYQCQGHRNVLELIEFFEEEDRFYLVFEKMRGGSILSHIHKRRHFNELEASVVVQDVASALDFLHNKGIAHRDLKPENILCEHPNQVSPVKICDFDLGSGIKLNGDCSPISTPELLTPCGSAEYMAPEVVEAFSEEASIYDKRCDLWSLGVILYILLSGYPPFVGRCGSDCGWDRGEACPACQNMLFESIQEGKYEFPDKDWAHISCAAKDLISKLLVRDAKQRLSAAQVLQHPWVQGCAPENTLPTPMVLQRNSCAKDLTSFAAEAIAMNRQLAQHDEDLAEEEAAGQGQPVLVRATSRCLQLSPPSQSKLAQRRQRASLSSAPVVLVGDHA

| Structure (SMILES) | IC50 |
| --- | --- |
| Cc1cc(Nc2ncnc3[nH]ccc23)[n+]([O-])c2c1C(=O)NC21CCCCC1 [Compound XXIX-F, 2′-((7H-pyrrolo[2,3-d]pyrimidin-4-yl)amino)-4′-methyl-5′-oxo-5′,6′-dihydrospiro[cyclohexane-1,7′-pyrrolo[3,4-b]pyridine] 1′-oxide] | 0.1 to 10 nM |
| Cc1cc(Nc2cc(NC(=O)C3CCCC3)ncn2)[n+]([O-])c2c1C(=O)NC21CCCCC1 [Compound XXIX-G, 2′-((6-(cyclopentanecarboxamido)pyrimidin-4-yl)amino)-4′-methyl-5′-oxo-5′,6′-dihydrospiro[cyclohexane-1,7′-pyrrolo[3,4-b]pyridine] 1′-oxide] | 0.1 to 10 nM |
| Cc1cc(Nc2ccnc(N[C@H]3CCOC3)c2)[n+]([O-])c2c1C(=O)NC21CCCCC1 [Compound XXIX-H, (S)-4′-methyl-5′-oxo-2′-((2-((tetrahydrofuran-3-yl)amino)pyridin-4-yl)amino)-5′,6′-dihydrospiro[cyclohexane-1,7′-pyrrolo[3,4-b]pyridine] 1′-oxide] | 100 to 1000 nM |
| Cc1cc(Nc2cc(NCCO)ncn2)[n+]([O-])c2c1C(=O)NC21CCCCC1 [Compound XXIX-I, 2′-((6-((2-hydroxyethyl)amino)pyrimidin-4-yl)amino)-4′-methyl-5′-oxo-5′,6′-dihydrospiro[cyclohexane-1,7′-pyrrolo[3,4-b]pyridine] 1′-oxide] | 10 to 100 nM |
| CC(=O)N1CC[C@H](Nc2cc(Nc3cc(C)c4c([n+]3[O-])C3(CCCCC3)NC4=O)ncn2)C1 [Compound XXIX-J, (S)-2′-((6-((1-acetylpyrrolidin-3-yl)amino)pyrimidin-4-yl)amino)-4′-methyl-5′-oxo-5′,6′-dihydrospiro[cyclohexane-1,7′-pyrrolo[3,4-b]pyridine] 1′-oxide] | 100 to 1000 nM |
| Cc1cc(Nc2cc(NC3CCCC3)ncn2)[n+]([O-])c2c1C(=O)NC21CCCCC1 [Compound XXIX-L, 2′-((6-(cyclopentylamino)pyrimidin-4-yl)amino)-4′-methyl-5′-oxo-5′,6′-dihydrospiro[cyclohexane-1,7′-pyrrolo[3,4-b]pyridine] 1′-oxide] | 10 to 100 nM |
| Cc1cc(Nc2cc(NC3=NC(C)(C)CO3)ncn2)[n+]([O-])c2c1C(=O)NC21CCCCC1 [Compound XXIX-M, 2′-((6-((4,4-dimethyl-4,5-dihydrooxazol-2-yl)amino)pyrimidin-4-yl)amino)-4′-methyl-5′-oxo-5′,6′-dihydrospiro[cyclohexane-1,7′-pyrrolo[3,4-b]pyridine] 1′-oxide] | 100 to 1000 nM |
| CC(=O)N(C)c1cccc(Nc2cc(Nc3cc(C)c4c([n+]3[O-])C3(CCCCC3)NC4=O)ncn2)c1 [Compound XXIX-N, 4′-methyl-2′-((6-((3-(N-methylacetamido)phenyl)amino)pyrimidin-4-yl)amino)-5′-oxo-5′,6′-dihydrospiro[cyclohexane-1,7′-pyrrolo[3,4-b]pyridine] 1′-oxide] | 10 to 100 nM |
| Cc1cc(Nc2ncnc3[nH]cnc23)[n+]([O-])c2c1C(=O)NC21CCCCC1 [Compound XXIX-O, 2′-((9H-purin-6-yl)amino)-4′-methyl-5′-oxo-5′,6′-dihydrospiro[cyclohexane-1,7′-pyrrolo[3,4-b]pyridine] 1′-oxide] | 10 to 100 nM |
| Cc1cc(Nc2cc(NCC3CCCO3)ncn2)[n+]([O-])c2c1C(=O)NC21CCCCC1 (stereo not shown) [Compound XXIX-P, 4′-methyl-5′-oxo-2′-((6-(((tetrahydrofuran-2-yl)methyl)amino)pyrimidin-4-yl)amino)-5′,6′-dihydrospiro[cyclohexane-1,7′-pyrrolo[3,4-b]pyridine] 1′-oxide] | 10 to 100 nM |
| Cc1cc(Nc2cc(NC3CNC3)ncn2)[n+]([O-])c2c1C(=O)NC21CCCCC1 [Compound XXIX-Q, 2′-((6-(azetidin-3-ylamino)pyrimidin-4-yl)amino)-4′-methyl-5′-oxo-5′,6′-dihydrospiro[cyclohexane-1,7′-pyrrolo[3,4-b]pyridine] 1′-oxide] | 10 to 100 nM |
| Cc1cc(Nc2cc(NC3CCOCC3)ncn2)[n+]([O-])c2c1C(=O)NC21CCCCC1 [Compound XXIX-R, 4′-methyl-5′-oxo-2′-((6-((tetrahydro-2H-pyran-4-yl)amino)pyrimidin-4-yl)amino)-5′,6′-dihydrospiro[cyclohexane-1,7′-pyrrolo[3,4-b]pyridine] 1′-oxide] | 100 to 1000 nM |
| Cc1cc(Nc2cc(N[C@H]3CCNC3)ncn2)[n+]([O-])c2c1C(=O)NC21CCCCC1 [Compound XXIX-S, (S)-4′-methyl-5′-oxo-2′-((6-(pyrrolidin-3-ylamino)pyrimidin-4-yl)amino)-5′,6′-dihydrospiro[cyclohexane-1,7′-pyrrolo[3,4-b]pyridine] 1′-oxide] | 10 to 100 nM |
| Cc1cc(Nc2cc(N[C@H]3C[C@H](O)C3)ncn2)[n+]([O-])c2c1C(=O)NC21CCCCC1 [Compound XXIX-T, trans-2′-((6-(((1r,3r)-3-hydroxycyclobutyl)amino)pyrimidin-4-yl)amino)-4′-methyl-5′-oxo-5′,6′-dihydrospiro[cyclohexane-1,7′-pyrrolo[3,4-b]pyridine] 1′-oxide] | 10 to 100 nM |
| Cc1cc(Nc2cc(NC(=O)N(C)C)ncn2)[n+]([O-])c2c1C(=O)NC21CCCCC1 [Compound XXIX-U, 2′-((6-(3,3-dimethylureido)pyrimidin-4-yl)amino)-4′-methyl-5′-oxo-5′,6′-dihydrospiro[cyclohexane-1,7′-pyrrolo[3,4-b]pyridine] 1′-oxide] | 10 to 100 nM |
| Cc1cc(Nc2cc(N[C@H]3CCC[C@@H]3O)ncn2)[n+]([O-])c2c1C(=O)NC21CCCCC1 [Compound XXIX-V, 2′-((6-(((1S,2S)-2-hydroxycyclopentyl)amino)pyrimidin-4-yl)amino)-4′-methyl-5′-oxo-5′,6′-dihydrospiro[cyclohexane-1,7′-pyrrolo[3,4-b]pyridine] 1′-oxide] | 10 to 100 nM |
| Cc1cc(Nc2cc(N[C@@H]3CCC[C@@H]3O)ncn2)[n+]([O-])c2c1C(=O)NC21CCCCC1 [Compound XXIX-W, 2′-((6-(((1R,2S)-2-hydroxycyclopentyl)amino)pyrimidin-4-yl)amino)-4′-methyl-5′-oxo-5′,6′-dihydrospiro[cyclohexane-1,7′-pyrrolo[3,4-b]pyridine] 1′-oxide] | 100 to 1000 nM |
| Cc1cc(Nc2cc(N[C@@H]3CCC[C@H]3O)ncn2)[n+]([O-])c2c1C(=O)NC21CCCCC1 [Compound XXIX-X, 2′-((6-(((1R,2R)-2-hydroxycyclopentyl)amino)pyrimidin-4-yl)amino)-4′-methyl-5′-oxo-5′,6′-dihydrospiro[cyclohexane-1,7′-pyrrolo[3,4-b]pyridine] 1′-oxide] | 10 to 100 nM |
| CCOC(=O)C1CCc2c(sc3ncnc(Nc4cc5c(s4)C(=O)NC54CCCCC4)c23)C1 (stereo not shown) [Compound XXV-5, Ethyl 4-((6′-oxo-5′,6′-dihydrospiro[cyclohexane-1,4′-thieno[2,3-c]pyrrol]-2′-yl)amino)-5,6,7,8-tetrahydrobenzo[4,5]thieno[2,3-d]pyrimidine-7-carboxylate] | 100 to 1000 nM |
| O=C1NC2(CCCCC2)c2cc(Nc3ncnc4sc5c(c34)CCC(C(=O)O)C5)sc21 (stereo not shown) [Compound XXV-6, 4-((6′-Oxo-5′,6′-dihydrospiro[cyclohexane-1,4′-thieno[2,3-c]pyrrol]-2′-yl)amino)-5,6,7,8-tetrahydrobenzo[4,5]thieno[2,3-d]pyrimidine-7-carboxylic acid] | 10 to 100 nM |
| C[C@@H]1CN(C(=O)C2CCc3c(sc4ncnc(Nc5cc6c(s5)C(=O)NC65CCCCC5)c34)C2)CCN1C (stereo partly drawn) [Compound XXV-A, 2′-((7-((R)-3,4-Dimethylpiperazine-1-carbonyl)-5,6,7,8-tetrahydrobenzo[4,5]thieno[2,3-d]pyrimidin-4-yl)amino)spiro[cyclohexane-1,4′-thieno[2,3-c]pyrrol]-6′(5′H)-one] | 10 to 100 nM |
| CN(C)C(=O)C1CCc2c(sc3ncnc(Nc4cc5c(s4)C(=O)NC54CCCCC4)c23)C1 (stereo not shown) [Compound XXV-B, N,N-Dimethyl-4-((6′-oxo-5′,6′-dihydrospiro[cyclohexane-1,4′-thieno[2,3-c]pyrrol]-2′-yl)amino)-5,6,7,8-tetrahydrobenzo[4,5]thieno[2,3-d]pyrimidine-7-carboxamide] | 10 to 100 nM |
| O=C1NC2(CCCCC2)c2cc(Nc3ncnc4sc5c(c34)CCC(C(=O)N3CCC3)C5)sc21 (stereo not shown) [Compound XXV-D, 2′-((7-(azetidine-1-carbonyl)-5,6,7,8-tetrahydrobenzo[4,5]thieno[2,3-d]pyrimidin-4-yl)amino)spiro[cyclohexane-1,4′-thieno[2,3-c]pyrrol]-6′(5′H)-one] | 10 to 100 nM |
| O=C1NC2(CCCCC2)c2nc(Nc3cc(N[C@H]4CCCOC4)ncn3)sc21 [Compound XXVIII-D, (S)-2′-((6-((tetrahydro-2H-pyran-3-yl)amino)pyrimidin-4-yl)amino)spiro[cyclohexane-1,4′-pyrrolo[3,4-d]thiazol]-6′(5′H)-one] | 10 to 100 nM |
| CC1(C)COC(Nc2cc(Nc3nc4c(s3)C(=O)NC43CCCCC3)ncn2)=N1 [Compound XXVIII-E, 2′-((6-((4,4-dimethyl-4,5-dihydrooxazol-2-yl)amino)pyrimidin-4-yl)amino)spiro[cyclohexane-1,4′-pyrrolo[3,4-d]thiazol]-6′(5′H)-one] | > 1000 nM |
| COc1c(Nc2nc3c(s2)C(=O)NC32CCCCC2)ncnc1N[C@H]1CCOC1 [Compound XXVIII-F, (S)-2′-((5-methoxy-6-((tetrahydrofuran-3-yl)amino)pyrimidin-4-yl)amino)spiro[cyclohexane-1,4′-pyrrolo[3,4-d]thiazol]-6′(5′H)-one] | > 1000 nM |
| CC(=O)N(C)c1cccc(Nc2cc(Nc3nc4c(s3)C(=O)NC43CCCCC3)ncn2)c1 [Compound XXVIII-I, N-methyl-N-(3-((6-((6′-oxo-5′,6′-dihydrospiro[cyclohexane-1,4′-pyrrolo[3,4-d]thiazol]-2′-yl)amino)pyrimidin-4-yl)amino)phenyl)acetamide] | 10 to 100 nM |
| O=C1NC2(CCCCC2)c2nc(Nc3ccnc(Nc4ccccn4)c3)sc21 [Compound XXVIII-J, 2′-((2-(pyridin-2-ylamino)pyridin-4-yl)amino)spiro[cyclohexane-1,4′-pyrrolo[3,4-d]thiazol]-6′(5′H)-one] | 10 to 100 nM |
